For experiment [1], the target named is T1, HmuS (Bacteroides thetaiotaomicron, UniProt A0A0P0FP54, H538A).
T1 construct: gene GAN91_17490; soluble HmuS without its predicted N- and C-terminal membrane-anchoring helices
Nature of the experiment: UV/vis hemin titration of purified mutant; no turnover to PPIX. The format is binding.

In experiment [2] the target is T2, HmuS (Bacteroides thetaiotaomicron, UniProt A0A0P0FP54).
T2 construct: gene GAN91_17490; soluble HmuS without its predicted N- and C-terminal membrane-anchoring helices
T2 sequence (A0A0P0FP54 28-1433 limits assumed): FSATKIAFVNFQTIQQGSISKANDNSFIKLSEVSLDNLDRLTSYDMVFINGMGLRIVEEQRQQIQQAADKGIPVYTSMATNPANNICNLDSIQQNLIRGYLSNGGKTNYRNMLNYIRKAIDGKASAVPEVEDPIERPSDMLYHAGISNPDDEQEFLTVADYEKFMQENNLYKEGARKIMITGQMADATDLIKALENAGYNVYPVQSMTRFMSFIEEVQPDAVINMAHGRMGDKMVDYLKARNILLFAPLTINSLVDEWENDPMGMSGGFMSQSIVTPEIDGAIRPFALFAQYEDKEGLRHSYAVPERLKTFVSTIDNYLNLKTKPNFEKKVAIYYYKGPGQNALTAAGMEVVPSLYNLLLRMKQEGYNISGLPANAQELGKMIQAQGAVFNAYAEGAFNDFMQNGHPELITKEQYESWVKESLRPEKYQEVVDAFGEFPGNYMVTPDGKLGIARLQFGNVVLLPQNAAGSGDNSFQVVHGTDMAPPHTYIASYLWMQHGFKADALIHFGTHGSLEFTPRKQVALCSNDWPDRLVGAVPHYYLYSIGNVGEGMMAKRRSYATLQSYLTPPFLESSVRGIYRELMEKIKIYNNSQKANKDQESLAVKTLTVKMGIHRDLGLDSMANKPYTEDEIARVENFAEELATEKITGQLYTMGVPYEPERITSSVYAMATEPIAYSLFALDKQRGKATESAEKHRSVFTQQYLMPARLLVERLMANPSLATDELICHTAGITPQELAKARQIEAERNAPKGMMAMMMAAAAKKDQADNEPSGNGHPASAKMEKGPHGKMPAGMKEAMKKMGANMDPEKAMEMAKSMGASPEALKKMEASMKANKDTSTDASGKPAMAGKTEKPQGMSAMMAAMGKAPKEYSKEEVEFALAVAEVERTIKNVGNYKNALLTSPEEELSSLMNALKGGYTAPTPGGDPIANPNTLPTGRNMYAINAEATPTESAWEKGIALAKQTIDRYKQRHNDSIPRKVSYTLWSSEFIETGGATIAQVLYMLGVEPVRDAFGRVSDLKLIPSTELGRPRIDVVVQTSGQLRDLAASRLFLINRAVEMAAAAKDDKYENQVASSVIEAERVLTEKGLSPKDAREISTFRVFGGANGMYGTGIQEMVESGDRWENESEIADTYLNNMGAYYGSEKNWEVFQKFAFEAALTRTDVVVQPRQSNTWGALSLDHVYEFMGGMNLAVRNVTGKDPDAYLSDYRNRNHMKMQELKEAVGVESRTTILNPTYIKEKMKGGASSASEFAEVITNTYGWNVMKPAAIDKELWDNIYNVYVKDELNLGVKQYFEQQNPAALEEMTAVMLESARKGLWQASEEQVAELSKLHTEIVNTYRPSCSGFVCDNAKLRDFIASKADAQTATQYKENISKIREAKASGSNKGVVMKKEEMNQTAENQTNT
Put plainly: cryo-EM structure at […] Å with heme; UV/vis hemin titration (Kd); HPLC turnover to PPIX. It counts as binding.

As a reminder, the Kd is the equilibrium constant for the complex coming apart. Read a high Kd as weaker binding. Consider `C=CC1=C(C)C2=Cc3c(C=C)c(C)c4[n]3[Fe][n]3c(c(C)c(CCC(=O)O)c3=CC3=NC(=C4)C(C)=C3CCC(=O)O)=CC1=N2` [heme], for which the figures for the Kd at HmuS [1] and on HmuS [2] were 1.4 ± 0.1 µM and 6 ± 6 µM, respectively.
